Key:
Assay type in all cases: in vivo
[1] = system: Green Peach Aphid (Myzus persicae); assay: Green peach aphid artificial diet test (systemic); details: 72 h, in aphid diet under artificial membrane, assessed after 3 days, read-out: mortality in comparison with untreated controls
Description: B.2 Green Peach Aphid (Myzus persicae)
For evaluating control of green peach aphid (Myzus persicae) through systemic means the test unit consisted of 96-well-microtiter plates containing liquid artificial diet under an artificial membrane.
The compounds were formulated using a solution containing 75% v/v water and 25% v/v DMSO. Different concentrations of formulated compounds were pipetted into the aphid diet, using a custom built pipetter, at two replications. After application, 5-8 adult aphids were placed on the artificial membrane inside the microtiter plate wells. The aphids were then allowed to suck on the treated aphid diet and were incubated at about 23±1° C. and about 50±5% relative humidity for 3 days. Aphid mortality and fecundity was then visually assessed.

[2] = system: Vetch aphid (Megoura viciae); assay: Vetch aphid leaf disk spray test (contact or systemic); details: foliar, 120 h, sprayed broad bean leaf disks, assessed after 5 days, read-out: mortality in comparison with untreated controls
Protocol: B.1 Vetch aphid (Megoura viciae)
For evaluating control of vetch aphid (Megoura viciae) through contact or systemic means the test unit consisted of 24-well-microtiter plates containing broad bean leaf disks.
The compounds were formulated using a solution containing 75% v/v water and 25% v/v DMSO. Different concentrations of formulated compounds were sprayed onto the leaf disks at 2.5 μl, using a custom built micro atomizer, at two replications. After application, the leaf disks were air-dried and 5-8 adult aphids were placed on the leaf disks inside the microtiter plate wells. The aphids were then allowed to suck on the treated leaf disks and were incubated at about 23±1° C. and about 50±5% relative humidity for 5 days. Aphid mortality and fecundity were then visually assessed.

[3] = system: Cowpea Aphid (Aphis craccivora); assay: Cowpea aphid potted plant spray test; details: potted cowpea plants sprayed, population reduction assessed after 24, 72 and 120 hours, read-out: mortality in comparison with untreated controls
Protocol: B.4 Cowpea Aphid (Aphis craccivora)
The active compound was dissolved at the desired concentration in a mixture of 1:1 (vol:vol) distilled water: acetone. The test solution was prepared at the day of use.
Potted cowpea plants colonized with approximately 100-150 aphids of various stages were sprayed after the pest population had been recorded. Population reduction was assessed after 24, 72, and 120 hours.

[4] = system: Silverleaf Whitefly (bemisia argentifolii); assay: Silverleaf whitefly cotton plant spray test; details: 72 h, cotton plants sprayed, whitefly adults, assessed 3 days after treatment, read-out: mortality in comparison with untreated controls
Description: B.5 Silverleaf Whitefly (bemisia argentifolii)
The active compounds were formulated in cyclohexanone as a 10,000 ppm solution supplied in tubes. The tubes were inserted into an automated electrostatic sprayer equipped with an atomizing nozzle and they serve as stock solutions for which lower dilutions are made in 50% acetone: 50% water (v/v). A nonionic surfactant (Kinetic®) was included in the solution at a volume of 0.01% (v/v).
Cotton plants at the cotyledon stage (one plant per pot) were sprayed by an automated electrostatic plant sprayer equipped with an atomizing spray nozzle. The plants were dried in the sprayer fume hood and then removed from the sprayer. Each pot was placed into a plastic cup and about 10 to 12 whitefly adults (approximately 3-5 days old) were introduced. The insects were collected using an aspirator and a nontoxic Tygon® tubing connected to a barrier pipette tip. The tip, containing the collected insects, were then gently inserted into the soil containing the treated plant, allowing insects to crawl out of the tip to reach the foliage for feeding. Cups were covered with a reusable screened lid. Test plants were maintained in a growth room at about 25° C. and about 20-40% relative humidity for 3 days, avoiding direct exposure to fluorescent light (24 hour photoperiod) to prevent trapping of heat inside the cup. Mortality was assessed 3 days after treatment, compared to untreated control plants.

[5] = system: Cotton aphid (Aphis gossypi); assay: Cotton aphid cotyledon dip test; details: 120 h, cotton cotyledons dipped, mortality counts after 5 days, read-out: mortality in comparison with untreated controls
Description: B.3 Cotton aphid (Aphis gossypi)
The active compounds were formulated in 50:50 (vol:vol) acetone: water and 100 ppm Kinetica™ surfactant.
Cotton plants at the cotyledon stage (one plant per pot) were infested by placing a heavily infested leaf from the main colony on top of each cotyledon. The aphids were allowed to transfer to the host plant overnight, and the leaf used to transfer the aphids was removed. The cotyledons were dipped in the test solution and allowed to dry. After 5 days, mortality counts were made.

Compound | mortality at 500 ppm [1] [%] | mortality at 800 ppm [2] [%] | mortality at 500 ppm [3] [%] | mortality at 500 ppm [4] [%] | mortality at 500 ppm [5] [%]
CSCCNC(=O)c1sc(-c2cccnc2)nc1C(F)(F)F [C.2, 2-Pyridin-3-yl-4-trifluoromethyl-thiazole-5-carboxylic acid (2-methylsulfanyl-ethyl)amide] | ≥ 75 | ≥ 75 | ≥ 75 |  | 
CCN(CC[S+](C)[O-])C(=O)c1sc(-c2cccnc2)nc1C(F)(F)F (centres unmarked) [C.4, 2-Pyridin-3-yl-4-trifluoromethyl-thiazole-5-carboxylic acid ethyl-(2-methanesulfinyl-ethyl)-amide] |  |  | ≥ 75 | ≥ 75 | 
CCN(C(=O)c1sc(-c2cccnc2)nc1C(F)(F)F)C1C[S+]([O-])C1 (centres unmarked) [C.8, 2-Pyridin-3-yl-4-trifluoromethyl-thiazole-5-carboxylic acid ethyl-(1-oxo-1lambda*4*-thietan-3-yl)-amide] |  |  |  | ≥ 75 | 
CN(C)C(=O)c1sc(-c2cccnc2)nc1Cl [C.11, 4-Chloro-N, N-dimethyl-2-(3-pyridyl)thiazole-5-carboxamide] | ≥ 75 | ≥ 75 | ≥ 75 | ≥ 75 | ≥ 75
CCN(C(=O)c1sc(-c2cccnc2)nc1C(F)(F)F)C1CSC1 [C.7, 2-Pyridin-3-yl-4-trifluoromethyl-thiazole-5-carboxylic acid ethyl-thietan-3-yl-amide] |  |  | ≥ 75 | ≥ 75 | 
O=C(NC1CSC1)c1sc(-c2cccnc2)nc1C(F)(F)F [C.6, 2-Pyridin-3-yl-4-trifluoromethyl-thiazole-5-carboxylic acid thietan-3-ylamide] |  | ≥ 75 |  |  | 
CN(C)C(=O)c1sc(-c2cccnc2)nc1C(F)(F)F [C.1, 2-Pyridin-3-yl-4-trifluoromethyl-thiazole-5-carboxylic acid dimethylamide] | ≥ 75 |  | ≥ 75 | ≥ 75 | 
CCN(CCS(C)(=O)=O)C(=O)c1sc(-c2cccnc2)nc1C(F)(F)F [C.5, 2-Pyridin-3-yl-4-trifluoromethyl-thiazole-5-carboxylic acid ethyl-(2-methanesulfonyl-ethyl)-amide] |  |  | ≥ 75 |  | 
CCN(CCSC)C(=O)c1sc(-c2cccnc2)nc1C(F)(F)F [C.3, 2-Pyridin-3-yl-4-trifluoromethyl-thiazole-5-carboxylic acid ethyl-(2-methylsulfanyl-ethyl)-amide] |  |  | ≥ 75 |  | ≥ 75
